Like-named read-outs stand apart in the source and are kept apart here.

What all share (assay type): biochemical
Assay [1] addresses DPP4 (Homo sapiens, UniProt P27487). The assay is described as follows: DPP4 inhibition, fluorogenic substrate H-Gly-Pro-AMC. Further details: purchased R&D Systems.
The target in assay [2] is T1, recombinant human DPP7 (Homo sapiens, UniProt Q9UHL4).
T1 construct: purchased R&D Systems
The assay is described as follows: DPP7 inhibition, fluorogenic substrate Lys-Pro-AMC. In outline: (§1)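 Enzyme per reaction: 50 ng DPP9, 20 ng DPP8, 10 ng each DPP7 and PREP. Compounds were serially diluted (8 points, up to 0.5% DMSO) and incubated at 25 °C.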

In assay [3] the target is T2, recombinant human DPP8 (Homo sapiens, UniProt Q6V1X1).
T2 construct: purchased PBS Bioscience
T2 sequence (Q6V1X1 whole entry): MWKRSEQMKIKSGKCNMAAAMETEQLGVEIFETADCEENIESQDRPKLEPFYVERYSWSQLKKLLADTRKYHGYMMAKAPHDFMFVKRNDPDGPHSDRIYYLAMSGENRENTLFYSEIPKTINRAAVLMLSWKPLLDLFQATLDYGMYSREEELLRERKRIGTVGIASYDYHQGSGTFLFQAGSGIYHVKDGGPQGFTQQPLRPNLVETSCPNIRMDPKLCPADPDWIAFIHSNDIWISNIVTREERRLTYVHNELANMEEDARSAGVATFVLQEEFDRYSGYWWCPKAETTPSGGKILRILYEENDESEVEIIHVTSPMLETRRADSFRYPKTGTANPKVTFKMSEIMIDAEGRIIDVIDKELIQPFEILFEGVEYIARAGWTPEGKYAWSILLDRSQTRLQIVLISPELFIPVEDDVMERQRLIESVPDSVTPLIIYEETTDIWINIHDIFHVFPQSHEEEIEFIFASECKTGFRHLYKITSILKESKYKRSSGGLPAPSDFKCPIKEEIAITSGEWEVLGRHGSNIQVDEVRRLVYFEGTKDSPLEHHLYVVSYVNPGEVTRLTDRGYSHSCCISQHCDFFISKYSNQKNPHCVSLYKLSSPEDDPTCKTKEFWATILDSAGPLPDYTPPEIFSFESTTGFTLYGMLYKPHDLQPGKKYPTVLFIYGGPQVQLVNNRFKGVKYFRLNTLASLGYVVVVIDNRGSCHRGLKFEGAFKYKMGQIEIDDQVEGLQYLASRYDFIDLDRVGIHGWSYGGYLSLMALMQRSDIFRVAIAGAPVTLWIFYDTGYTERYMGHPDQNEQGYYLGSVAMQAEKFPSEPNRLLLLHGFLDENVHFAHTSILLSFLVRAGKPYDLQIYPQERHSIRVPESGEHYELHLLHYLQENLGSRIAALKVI
The assay is described as follows: DPP8 inhibition, fluorogenic substrate Z-Ala-Pro-AMC. In outline: as §1

The target in assay [4] is T3, recombinant human DPP9 (Homo sapiens, UniProt Q86TI2).
T3 construct: purchased R&D Systems
T3 sequence (Q86TI2 whole entry): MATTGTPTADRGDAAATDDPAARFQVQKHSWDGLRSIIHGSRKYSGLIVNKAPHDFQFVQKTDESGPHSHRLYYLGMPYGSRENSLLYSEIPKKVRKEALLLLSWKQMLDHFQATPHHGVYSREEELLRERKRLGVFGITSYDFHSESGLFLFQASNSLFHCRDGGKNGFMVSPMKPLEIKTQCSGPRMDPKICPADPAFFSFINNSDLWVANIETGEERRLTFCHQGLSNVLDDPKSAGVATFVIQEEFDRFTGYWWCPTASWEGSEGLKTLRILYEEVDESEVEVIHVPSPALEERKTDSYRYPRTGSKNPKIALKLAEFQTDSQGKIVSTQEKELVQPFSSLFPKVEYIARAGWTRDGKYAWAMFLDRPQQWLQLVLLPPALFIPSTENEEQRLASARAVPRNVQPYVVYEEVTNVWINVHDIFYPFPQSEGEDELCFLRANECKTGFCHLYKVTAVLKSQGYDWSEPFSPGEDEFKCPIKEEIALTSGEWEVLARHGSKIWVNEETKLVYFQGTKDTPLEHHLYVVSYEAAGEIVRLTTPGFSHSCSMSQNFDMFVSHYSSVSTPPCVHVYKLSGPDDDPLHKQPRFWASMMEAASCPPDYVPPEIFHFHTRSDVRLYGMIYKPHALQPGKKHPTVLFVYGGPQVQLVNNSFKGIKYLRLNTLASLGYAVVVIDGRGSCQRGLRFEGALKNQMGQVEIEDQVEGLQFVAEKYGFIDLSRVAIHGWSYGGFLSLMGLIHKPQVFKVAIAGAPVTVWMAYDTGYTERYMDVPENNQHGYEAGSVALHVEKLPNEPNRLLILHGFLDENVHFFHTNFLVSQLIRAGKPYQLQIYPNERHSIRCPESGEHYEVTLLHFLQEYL
The assay is described as follows: DPP9 inhibition, fluorogenic substrate H-Gly-Pro-AMC. The gist of the method:
as §1

The target in assay [5] is T4, recombinant human PREP (Homo sapiens, UniProt P48147).
T4 construct: purchased R&D System
T4 sequence (P48147 1-710): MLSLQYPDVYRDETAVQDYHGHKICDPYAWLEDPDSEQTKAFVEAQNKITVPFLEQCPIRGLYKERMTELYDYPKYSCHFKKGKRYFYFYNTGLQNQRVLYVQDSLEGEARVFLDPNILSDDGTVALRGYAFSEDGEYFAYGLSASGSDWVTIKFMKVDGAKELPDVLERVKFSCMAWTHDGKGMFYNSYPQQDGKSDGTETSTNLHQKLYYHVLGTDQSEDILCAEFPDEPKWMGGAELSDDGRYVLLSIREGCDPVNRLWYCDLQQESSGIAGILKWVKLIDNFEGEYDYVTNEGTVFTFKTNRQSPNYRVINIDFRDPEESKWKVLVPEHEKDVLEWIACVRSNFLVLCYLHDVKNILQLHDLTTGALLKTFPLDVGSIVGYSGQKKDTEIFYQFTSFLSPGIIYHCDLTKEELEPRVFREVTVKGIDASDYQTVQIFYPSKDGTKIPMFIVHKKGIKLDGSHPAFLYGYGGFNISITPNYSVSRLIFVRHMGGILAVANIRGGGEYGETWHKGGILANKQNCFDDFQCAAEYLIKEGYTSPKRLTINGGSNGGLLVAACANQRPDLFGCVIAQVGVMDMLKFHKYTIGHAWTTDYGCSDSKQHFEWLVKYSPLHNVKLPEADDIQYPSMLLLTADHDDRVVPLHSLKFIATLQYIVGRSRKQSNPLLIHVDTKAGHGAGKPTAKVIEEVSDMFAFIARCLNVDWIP
The assay is described as follows: PREP inhibition, fluorogenic substrate Z-Gly-Pro-AMC. The conditions noted are these: Inhibitory Activity (IC50, nM) PREP. In outline: as §1

Assay [6] deals with T5, Recombinant human FAP (Homo sapiens, UniProt Q12884).
T5 construct: purchased R&D systems
T5 sequence (Q12884 1-760): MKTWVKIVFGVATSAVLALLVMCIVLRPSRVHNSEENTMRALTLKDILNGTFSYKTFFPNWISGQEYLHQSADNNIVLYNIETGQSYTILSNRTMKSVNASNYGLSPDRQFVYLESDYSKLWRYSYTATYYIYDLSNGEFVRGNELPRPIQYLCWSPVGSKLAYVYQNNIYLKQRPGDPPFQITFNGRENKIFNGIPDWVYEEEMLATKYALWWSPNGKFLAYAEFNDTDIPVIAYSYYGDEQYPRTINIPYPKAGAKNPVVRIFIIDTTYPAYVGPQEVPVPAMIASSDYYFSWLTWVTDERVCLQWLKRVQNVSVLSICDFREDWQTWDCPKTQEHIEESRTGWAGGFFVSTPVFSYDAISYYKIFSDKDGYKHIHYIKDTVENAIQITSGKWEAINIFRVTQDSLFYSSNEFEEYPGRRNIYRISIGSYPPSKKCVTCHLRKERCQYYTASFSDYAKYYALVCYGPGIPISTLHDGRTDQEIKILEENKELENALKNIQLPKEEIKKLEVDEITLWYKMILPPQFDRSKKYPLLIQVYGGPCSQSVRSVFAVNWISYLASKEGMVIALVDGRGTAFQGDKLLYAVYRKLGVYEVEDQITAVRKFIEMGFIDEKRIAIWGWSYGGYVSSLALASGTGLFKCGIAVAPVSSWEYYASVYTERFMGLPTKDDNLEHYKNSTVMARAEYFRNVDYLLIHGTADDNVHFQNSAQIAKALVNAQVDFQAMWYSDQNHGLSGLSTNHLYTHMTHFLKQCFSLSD
The assay is described as follows: FAP inhibition, fluorogenic substrate Z-Gly-Pro-AMC. In outline: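 Recombinant human FAP, 10 ng per reaction, in 50 mM Tris pH 7.5 with 1 M NaCl and 1 mg/ml BSA at 25° C; substrate Z-Gly-Pro-AMC, ≤0.1% DMSO. AMC fluorescence read at ex 380/em 460 nm; % signal-rate decrease vs no-inhibitor control, 8-point curves fitted to a four-parameter logistic for IC50.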

Setting [7] is: 25° C., H-Gly-Pro-AMC substrate.
[8] abbreviates: 25° C., Z-Ala-Pro-AMC substrate.
Setting [9] is: 25° C., Z-Gly-Pro-AMC substrate.
The mark [10] stands for this setting: recombinant human FAP, substrate Z-Gly-Pro-AMC.

Chain of DPP4 (P27487 whole entry): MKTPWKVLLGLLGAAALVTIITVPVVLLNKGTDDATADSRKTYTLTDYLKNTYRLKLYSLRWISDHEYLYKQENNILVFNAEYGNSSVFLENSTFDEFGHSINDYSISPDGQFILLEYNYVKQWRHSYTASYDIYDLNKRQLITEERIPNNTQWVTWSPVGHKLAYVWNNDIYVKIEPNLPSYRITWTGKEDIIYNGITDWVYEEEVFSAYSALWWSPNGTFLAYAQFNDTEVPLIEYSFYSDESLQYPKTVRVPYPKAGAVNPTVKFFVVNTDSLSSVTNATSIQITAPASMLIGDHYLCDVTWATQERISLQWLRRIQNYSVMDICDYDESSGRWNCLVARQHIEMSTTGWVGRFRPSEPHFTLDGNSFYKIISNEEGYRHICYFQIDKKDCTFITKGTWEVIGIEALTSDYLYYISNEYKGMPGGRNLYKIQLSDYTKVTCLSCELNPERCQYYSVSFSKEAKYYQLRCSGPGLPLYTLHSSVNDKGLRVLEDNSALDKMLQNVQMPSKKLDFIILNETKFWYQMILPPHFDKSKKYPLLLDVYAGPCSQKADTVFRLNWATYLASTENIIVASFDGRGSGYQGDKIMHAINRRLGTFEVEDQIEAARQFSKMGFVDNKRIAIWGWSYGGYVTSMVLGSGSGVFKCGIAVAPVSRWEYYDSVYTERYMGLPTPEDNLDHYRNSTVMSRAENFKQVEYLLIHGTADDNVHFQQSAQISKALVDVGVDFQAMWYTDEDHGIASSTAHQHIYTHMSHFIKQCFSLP

As for `N#C[C@@H]1CC(F)(F)CN1C(=O)CN1CC[C@H](Nc2cncc3ccccc23)C1` [Example 8, (S)-4,4-difluoro-1-(2-((S)-3-(isoquinolin-4-ylamino)pyrrolidin-1-yl)acetyl)pyrrolidine-2-carbonitrile], the IC50 in assay [1] (setting [7]) was over 1000 nM; in assay [2], under 30 nM; in assay [3] (setting [8]) it was 5790 nM; in assay [4] (setting [7]), 488 nM; in assay [5] (setting [9]) it was over 100000 nM; in assay [6] (setting [9]) it was 1.1 nM.

With `N#C[C@@H]1C[C@H](F)CN1C(=O)CN1CCC(Oc2cncc3ccccc23)CC1` [Example 420, (2S,4S)-4-fluoro-1-[2-[4-(4-isoquinolyloxy)-1-piperidyl]acetyl]pyrrolidine-2-carbonitrile], the IC50 in assay [1] (recombinant human DPP4) is over 10000 nM; in assay [2] (recombinant human DPP7), 2080 nM; in assay [3] (recombinant human DPP8) it was 8590 nM; in assay [4] (recombinant human DPP9) it was 22100 nM; in assay [5] (recombinant human PREP), 1740 nM; in assay [6] (setting [10]) it was 7 nM.

Regarding `COc1cc2nccc(O[C@H]3CCN(CC(=O)N4C[C@@H](F)C[C@H]4C#N)C3)c2cc1OC` [Example 300, (2S,4S)-4-fluoro-1-[2-[(3S)-3-[(6,7-dimethoxy-4-quinolyl)oxy]pyrrolidin-1-yl]acetyl]pyrrolidine-2-carbonitrile], the IC50 in assay [1] (recombinant human DPP4) is over 10000 nM; in assay [2] (recombinant human DPP7) it was 2930 nM; in assay [3] (recombinant human DPP8), 17800 nM; in assay [4] (recombinant human DPP9), 12100 nM; in assay [5] (recombinant human PREP) it was 4890 nM; in assay [6] (setting [10]), 1.9 nM.

`N#Cc1cnc2cccc(N[C@H]3CCN(CC(=O)N4C[C@@H](F)C[C@H]4C#N)C3)c2c1` [Example 253, 5-[[(3S)-1-[2-oxo-2-[(2S,4S)-2-cyano-4-fluoro-pyrrolidin-1-yl]ethyl]pyrrolidin-3-yl]amino]quinoline-3-carbonitrile]: the half-maximal inhibitory concentration (IC50) in assay [1] (recombinant human DPP4) was 2310 nM; in assay [2] (recombinant human DPP7) it was 2190 nM; in assay [3] (recombinant human DPP8), 2670 nM; in assay [4] (recombinant human DPP9), 5360 nM; in assay [5] (recombinant human PREP), 2220 nM; in assay [6] (setting [10]), 0.9 nM.

`N#C[C@@H]1CC(F)(F)CN1C(=O)CN1CC[C@H](Oc2ccnc3cc(Cl)ccc23)C1` [Example 107, (S)-1-(2-((S)-3-((7-chloroquinolin-4-yl)oxy)pyrrolidin-1-yl)acetyl)-4,4-difluoropyrrolidine-2-carbonitrile]: the IC50 is over 1000 nM in assay [1] (setting [7]); 18.7 nM in assay [2]; 9890 nM in assay [3] (setting [8]); 13500 nM in assay [4] (setting [7]); 6500 nM in assay [5] (setting [9]); 3.67 nM in assay [6] (setting [9]).

Take `COc1ccc(NC2CCN(CC(=O)N3CCC[C@H]3C#N)CC2)c2cccnc12` [Example 125, (S)-1-(2-(4-((8-methoxyquinolin-5-yl)amino)piperidin-1-yl)acetyl)pyrrolidine-2-carbonitrile]: the 50% inhibitory concentration (IC50) is over 10000 nM in assay [1] (setting [7]); 5550 nM in assay [2]; 33700 nM in assay [3] (setting [8]); over 100000 nM in assay [4] (setting [7]); 28900 nM in assay [5] (setting [9]); 5.5 nM in assay [6] (setting [9]).

For the compound `Cc1cncc2cccc(NC3CCN(CC(=O)N4C[C@@H](F)C[C@H]4C#N)CC3)c12` [Example 354, (2S,4S)-4-fluoro-1-[2-[4-[(4-methyl-5-isoquinolyl)amino]-1-piperidyl]acetyl]pyrrolidine-2-carbonitrile], the IC50 in assay [1] (recombinant human DPP4) worked out at 2080 nM; in assay [2] (recombinant human DPP7), 428 nM; in assay [3] (recombinant human DPP8), 1780 nM; in assay [4] (recombinant human DPP9) it was 4940 nM; in assay [5] (recombinant human PREP), 2820 nM; in assay [6] (setting [10]), 8.9 nM.

Consider `N#C[C@@H]1CCCN1C(=O)CN1CC[C@H](Oc2cccc3[nH]c(=O)ccc23)C1` [Example 75, (S)-1-(2-((S)-3-((2-oxo-1,2-dihydroquinolin-5-yl)oxy)pyrrolidin-1-yl)acetyl)pyrrolidine-2-carbonitrile], for which the IC50 is over 1000 nM in assay [1] (setting [7]); 814 nM in assay [2]; 93200 nM in assay [3] (setting [8]); over 100000 nM in assay [4] (setting [7]); 5250 nM in assay [5] (setting [9]); 9.84 nM in assay [6] (setting [9]).

Take `COc1ccc(NC2CCN(CC(=O)N3C[C@@H](F)C[C@H]3C#N)CC2)c2cccnc12` [Example 135, (2S,4S)-4-fluoro-1-(2-(4-((8-methoxyquinolin-5-yl)amino)piperidin-1-yl)acetyl)pyrrolidine-2-carbonitrile]: the IC50 in assay [1] (setting [7]) was 4140 nM; in assay [2], 1020 nM; in assay [3] (setting [8]) it was 5780 nM; in assay [4] (setting [7]), 3440 nM; in assay [5] (setting [9]) it was 4990 nM; in assay [6] (setting [9]), 3.47 nM.

As for `N#Cc1ccc2c(N[C@H]3CCN(CC(=O)N4CCC[C@H]4C#N)C3)cccc2n1` [Example 231, 5-[[(3S)-1-[2-oxo-2-[(2S)-2-cyanopyrrolidin-1-yl]ethyl]pyrrolidin-3-yl]amino]quinoline-2-carbonitrile], the IC50 in assay [1] (recombinant human DPP4) is over 10000 nM; in assay [2] (recombinant human DPP7) it was 1510 nM; in assay [3] (recombinant human DPP8), 12600 nM; in assay [4] (recombinant human DPP9) it was 21600 nM; in assay [5] (recombinant human PREP), 11500 nM; in assay [6] (setting [10]) it was 1 nM.

`N#C[C@@H]1C[C@H](F)CN1C(=O)CN1CCC(Oc2cccc3cnccc23)CC1` [Example 421, (2S,4S)-4-fluoro-1-[2-[4-(5-isoquinolyloxy)-1-piperidyl]acetyl]pyrrolidine-2-carbonitrile]: the IC50 in assay [1] (recombinant human DPP4) was 7530 nM; in assay [2] (recombinant human DPP7) it was over 100000 nM; in assay [3] (recombinant human DPP8), 1580 nM; in assay [4] (recombinant human DPP9) it was 4160 nM; in assay [5] (recombinant human PREP) it was 2610 nM; in assay [6] (setting [10]), 2.5 nM.

Take `CN(c1ccc2cnccc2c1)C1CCN(CC(=O)N2CCC[C@H]2C#N)CC1` [Example 314, (2S)-1-(2-(4-(isoquinolin-6-yl(methyl)amino)piperidin-1-yl)acetyl)pyrrolidine-2-carbonitrile]: the IC50 in assay [1] (recombinant human DPP4) was over 10000 nM; in assay [2] (recombinant human DPP7) it was 2470 nM; in assay [3] (recombinant human DPP8) it was over 100000 nM; in assay [4] (recombinant human DPP9) it was 34900 nM; in assay [5] (recombinant human PREP), 531 nM; in assay [6] (setting [10]), 8.7 nM.

On to `N#C[C@@H]1C[C@H](F)CN1C(=O)CN1CCC(Oc2nccc3ccccc23)CC1` [Example 419, (2S,4S)-4-fluoro-1-[2-[4-(1-isoquinolyloxy)-1-piperidyl]acetyl]pyrrolidine-2-carbonitrile], for which the IC50 is over 10000 nM in assay [1] (recombinant human DPP4); 2020 nM in assay [2] (recombinant human DPP7); 9390 nM in assay [3] (recombinant human DPP8); 23000 nM in assay [4] (recombinant human DPP9); 1100 nM in assay [5] (recombinant human PREP); 8.1 nM in assay [6] (setting [10]).

In the case of `N#C[C@@H]1CCCN1C(=O)CN1CCC(Oc2ccnc3ccccc23)CC1` [Example 118, (S)-1-(2-(4-(quinolin-4-yloxy)piperidin-1-yl)acetyl)pyrrolidine-2-carbonitrile], the “hDPP4 inhibition % at 1 μM” value in assay [1] (at 1 μM) is listed as “No inhibition**”. Further, the IC50 in assay [2] was 10200 nM; in assay [3] (setting [8]) it was 85400 nM; in assay [4] (setting [7]), over 100000 nM; in assay [5] (setting [9]), 1040 nM; in assay [6] (setting [9]), 2.34 nM.

By IC50 is commonly meant the concentration needed to halve the response being measured.

Source of the values: patent publication US11655235B2, “Pyrrolidine and piperidine compounds” (YUHAN CORPORATION, priority 2019, dated 2023).
